Consider one compound from patent US7235588B2, “Method for reducing hypertension and heart failure” (The Research Foundation of State University of New York, priority 2001, dated 2007).

“Also recorded” adds a separate entry of the source. Like-named read-outs stand apart in the source and are kept apart here.

In one test the test system is male C57/BL6 mice. Kind of test: Transverse aortic constriction (TAC) induced left ventricular hypertrophy in mice. The class given is in vivo. The protocol: Pressure overload was produced by transverse aortic constriction (TAC) to induce left ventricular hypertrophy (FIG. 1). Briefly, male C57/BL6 mice, weighing 20 to 24 grams, were anesthetized by intra-peritoneal injection of a cocktail of ketamine (100 mg/kg) and xylazine ([…]). The mice were shaved, restrained, and orally intubated (under direct vision via a vertical cervical incision) using a 22 guage blunt feeding needle. Respiration was artificially controlled (tidal volume of 0.1 to 0.3 ml) at a respiratory rate of 110 to 150 breaths/minute using a ventilator (Harvard Apparatus Rodent Ventilator, model 683). A median sternotomy was performed and the sternum retracted. The thymus was retracted anteriorly and the aortic arch identified and ligated (using 8.0 nylon suture; Ethicon) between the innominate and left common carotid artery with an overlying 27-guage needle; and then the needle removed to leave a discrete region of stenosis. The chest was then closed in two layers (using 6.0 vicryl suture, Ethicon) and the pneumothorax evacuated. Some mice were subjected to a sham operation in which the aortic arch was visualized but not banded. The mice were then extubated and monitored post-op for 3 to 12 hours. The survival rate at the end of the learning period is greater than 90%.
Nine days post-op, the hearts were removed from heparinized (500 U) mice and euthanized with a lethal dose of pentobarbital (150 mg/kg). The hearts were analyzed by visual inspection of a cross-section of the heart (FIG. 2A), determination of heart to body weight ratio (FIG. 2B), and light microscopy of the cardiomyocytes in the left ventricular (FIG. 2C), and activation of artiel natuiretic factor (ANF), a specific molecular marker for hypertrophy (FIG. 3). Based on these determinations, all trans-aortic constricted mice developed well-defined left ventricular hypertrophy.
To determine whether tyrphostin AG490 could reverse the hypertrophy induced by traverse aortic constriction, tyrphostin AG490 (5 μM) was administered to the mice, intra-peritoneal, 24 hours before being subjected to transverse aortic constriction and every 24 hours thereafter for the duration of the study (9 days).

The test system of test [1] is St-domain/STAT binding activity. Kind of test: Electrophoretic gel mobility-shift assay of St-domain/STAT binding in heart nuclear extracts. Details: species or system rat. As to conditions: hearts, 30 min ischemia/120 min reperfusion. The source says:
Nuclear extracts were examined in hearts subjected to global ischemia to determine whether there is enhanced STAT binding activity to the St domain of the angiotensinogen promoter. The nuclear heart extracts were examined by the electrophoretic gel mobility-shift assay that exployed the use of the chemically synthesized oligonucleotide sequence of the St domain. The St-domain DNA probe for protein binding was a double-stranded oligonucleotide containing the sequence 5′-GGGTtcCTGGAAGGG-3′ SEQ. ID NO: 2, and complementary strand 5′-CCCTTCCAGgaACCC-3′ SEQ. ID NO: 3, respectively. These probes were end-labeled by polynucleotide kinase and [γ-^32P]ATP. Binding reaction mixture containing 0.5 ng of labeled DNA (1,000 cpm), 2 μg of poly(dI-C), and 1-12 μg of protein in buffer containing 20 mM Hepes, 3% glycerol, 1.5 mM MgCl2, 1 mM DTT, 2 mM EDTA and 50 mM KCl, pH 7.5 was allowed to incubate at 4° C. for 30 min. The reactions were analyzed by electrophoresis on 8% polyacrylanide gel in 0.375× TBE ([…] Tris borate, pH 8.7 and 1.0 mM EDTA). After electrophoresis, the gels were dried and subjected to autoradiography. […] (FIG. 5B). The activation of STATs and the consequent binding to the St-domain in the angiotensinogen promoter accounts for the increase in transcription of angiotensinogen mRNA. […]

For test [2], the target named is T1, Jak2 (Rattus norvegicus, UniProt Q62689).
T1 construct: nuclear extracts from hearts subjected to ischemia/reperfusion in presence of absence of tyrphostin AG490 were immunoprecipitated; from tissue; host or cells: rat heart (nuclear extracts)
Kind of test: Phosphotyrosine assay of Jak2 in hearts subjected to ischemia/reperfusion. As to conditions: ischemic heart, FIG. 6A. As for the experimental part:
Rats were pretreated with 5 or 50 μmol/L of tyrphostin AG490 24 h prior to ischemia/reperfusion followed by chronic administration of tyrphostin AG490 during the process of ischemia/reperfusion. A phosphotyrosine assay was performed. Briefly, nuclear extracts from hearts subjected to ischemia/reperfusion in presence of absence of tyrphostin AG490 were immunoprecipitated with anti-phosphotyrosine antibodies (4G10). Fifty microliters of 50% protein A-agarose, prewashed in lysis buffer (Upstate Biotechnology) was then added and the mixture was incubated for 2 hr at 4° C. Each sample was washed with washing buffer containing 150 mM NaCl, 50 mM Tris-HCL (pH 7.4), 5 mM EDTA, 0.25% Triton X-100, 2 mM phenylmethylsulfonyl fluoride, aprotinin (0.2 unit/ml), 1 mM Na3VO4, and 1 mM NaF. Samples were eluted in 2× Laernmli's sample buffer. Proteins were separated on a 7.5% SDS/polyacrylamide gel and transferred to nitrocellulose membrane, Nitropure (Micron Separations, Westboro, Mass.). Blots were probed with polyclonal antibody against Jak2 and developed according to the chemiluminescence protocol. Administration of tyrphostin AG490 in perfusion medium was inhibitory at both 5 and 50 μmol/L for pliosphorylation of Jak2, which was activated readily in the ischemic heart in absence of the inhibitor (FIG. 6A).

In test [3] the test system is spontaneously hypertensive rats. Kind of test: Blood pressure in spontaneously hypertensive rats. The class given is in vivo, rat. As to conditions: 5 micromoles, FIG. 9. As for the experimental part:
Adult spontaneously hypertensive rats, which are genetically predisposed to hypertension, and normotensive rats were anesthetized with pentobarbital sodium (65 mg/kg ip) in preparation for surgery. […] Teflon arterial catheter (ID […]) was inserted into the left femoral artery. The catheter was tunneled under the skin and exited at the nape of the rat's neck and connected to a 26 G needle capped on a port and flushed with 1:3 heparin saline. The rats were housed individually after surgery, and allowed 48 hours to recover from the operation. Systolic and diastolic blood pressure were directly measured using the connection to the port placed in the rat's neck to a manual transducer.

In test [4] the target is Jak2 (Homo sapiens, UniProt O60674). As to conditions: cited from earlier work.
Sequence of Jak2 (Homo sapiens, UniProt O60674) (O60674 whole entry, species assumed): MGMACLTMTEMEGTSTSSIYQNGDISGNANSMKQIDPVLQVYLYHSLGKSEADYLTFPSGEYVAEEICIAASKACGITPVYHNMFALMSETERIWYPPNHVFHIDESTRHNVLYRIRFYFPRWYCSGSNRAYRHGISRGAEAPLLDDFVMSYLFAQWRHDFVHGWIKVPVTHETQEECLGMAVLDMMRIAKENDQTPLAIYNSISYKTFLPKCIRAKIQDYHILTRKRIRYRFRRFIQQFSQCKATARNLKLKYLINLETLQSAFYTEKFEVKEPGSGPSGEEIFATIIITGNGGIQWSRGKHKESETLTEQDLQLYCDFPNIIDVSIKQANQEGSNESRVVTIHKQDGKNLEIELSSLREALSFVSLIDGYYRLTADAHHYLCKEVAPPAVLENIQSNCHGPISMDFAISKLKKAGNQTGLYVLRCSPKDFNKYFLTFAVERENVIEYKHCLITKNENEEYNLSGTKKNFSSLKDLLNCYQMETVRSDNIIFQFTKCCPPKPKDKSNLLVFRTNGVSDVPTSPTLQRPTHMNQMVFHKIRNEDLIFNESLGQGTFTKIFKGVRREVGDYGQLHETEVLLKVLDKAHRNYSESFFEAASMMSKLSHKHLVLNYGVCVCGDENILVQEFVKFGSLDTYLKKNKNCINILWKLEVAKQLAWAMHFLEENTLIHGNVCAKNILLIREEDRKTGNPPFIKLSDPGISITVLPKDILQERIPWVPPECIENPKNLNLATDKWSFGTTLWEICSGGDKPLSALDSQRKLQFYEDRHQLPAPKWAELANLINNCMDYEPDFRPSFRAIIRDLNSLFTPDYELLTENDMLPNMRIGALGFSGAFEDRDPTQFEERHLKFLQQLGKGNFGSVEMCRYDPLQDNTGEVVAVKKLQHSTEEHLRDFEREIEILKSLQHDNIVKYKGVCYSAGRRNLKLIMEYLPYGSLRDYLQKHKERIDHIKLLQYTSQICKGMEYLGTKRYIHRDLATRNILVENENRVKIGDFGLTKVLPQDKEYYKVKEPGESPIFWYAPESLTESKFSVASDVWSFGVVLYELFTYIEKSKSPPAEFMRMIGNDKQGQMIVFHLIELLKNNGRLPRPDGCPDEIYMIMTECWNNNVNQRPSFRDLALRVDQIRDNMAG

T1 sequence (Q62689 whole entry, the tested form may be a part): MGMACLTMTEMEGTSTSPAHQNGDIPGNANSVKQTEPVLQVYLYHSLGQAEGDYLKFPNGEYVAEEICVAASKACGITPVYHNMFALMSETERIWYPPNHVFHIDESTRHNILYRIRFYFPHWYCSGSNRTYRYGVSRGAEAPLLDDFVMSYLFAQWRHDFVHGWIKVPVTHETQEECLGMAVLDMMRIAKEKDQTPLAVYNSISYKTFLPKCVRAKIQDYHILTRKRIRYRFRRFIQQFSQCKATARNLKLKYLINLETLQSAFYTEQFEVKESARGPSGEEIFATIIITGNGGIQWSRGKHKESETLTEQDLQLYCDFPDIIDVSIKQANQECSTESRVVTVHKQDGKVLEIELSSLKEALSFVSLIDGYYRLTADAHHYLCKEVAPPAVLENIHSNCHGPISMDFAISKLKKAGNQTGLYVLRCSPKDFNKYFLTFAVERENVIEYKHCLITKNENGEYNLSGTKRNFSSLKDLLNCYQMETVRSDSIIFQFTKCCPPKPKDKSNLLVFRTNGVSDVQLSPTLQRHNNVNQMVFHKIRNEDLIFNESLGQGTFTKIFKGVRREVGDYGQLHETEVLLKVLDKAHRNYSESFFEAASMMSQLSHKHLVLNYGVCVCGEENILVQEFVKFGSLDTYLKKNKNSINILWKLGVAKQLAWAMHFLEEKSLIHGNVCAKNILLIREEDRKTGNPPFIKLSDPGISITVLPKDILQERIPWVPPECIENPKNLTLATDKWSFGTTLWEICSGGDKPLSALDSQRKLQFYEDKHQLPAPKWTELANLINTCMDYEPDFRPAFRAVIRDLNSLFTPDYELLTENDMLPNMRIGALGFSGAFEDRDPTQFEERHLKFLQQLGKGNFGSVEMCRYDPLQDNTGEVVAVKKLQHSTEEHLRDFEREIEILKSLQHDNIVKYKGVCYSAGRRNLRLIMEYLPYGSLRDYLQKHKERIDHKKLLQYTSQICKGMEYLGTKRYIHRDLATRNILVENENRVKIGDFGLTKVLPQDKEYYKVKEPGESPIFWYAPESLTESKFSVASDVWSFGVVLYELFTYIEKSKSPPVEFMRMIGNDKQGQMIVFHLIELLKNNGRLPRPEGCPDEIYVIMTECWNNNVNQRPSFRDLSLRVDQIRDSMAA

Regarding `N#C/C(=C\c1ccc(O)c(O)c1)C(=O)NCc1ccccc1` [tyrphostin AG490], the “reversal of hypertrophy induced by transverse aortic constriction” value with male C57/BL6 mice (5 μM intra-peritoneal, 24 h before TAC and every 24 h for 9 days) was “remarkable reversal of hypertrophy”. For the same compound, the “LVH by visual inspection of cross section of the heart” value with male C57/BL6 mice (FIG. 2A, TAC mice) was “decrease in LVH”. Also, the “ratio of heart weight to body weight” value in the test on male C57/BL6 mice (FIG. 2B, TAC mice) is given as “decrease in ratio of heart weight to body weight”. Further, the “hypertrophy of cardiomyocytes of left ventricle by light microscopy” value in the test on male C57/BL6 mice (FIG. 2C, TAC mice) is “decrease in hypertrophy”. In addition, in the test on male C57/BL6 mice (FIG. 3, during cardiac hypertrophy), the “ANF (atrial natriuretic factor, marker for hypertrophy)” value is “ANF inhibition”. In addition, the “St-domain/STAT binding activity (STAT/DNA complex formation)” value in test [1] is “total loss of STAT/DNA complex formation; also recorded: reduction of St-domain/STAT binding activity”. Moreover, the “phosphorylation of Jak2” value at Jak2 [2] (5 μmol/L in perfusion medium) and on Jak2 [2] (50 μmol/L in perfusion medium) was “inhibitory” in each case. Besides, the blood pressure result in test [3] was “effective in lowering blood pressure to normal levels; also recorded: attenuation of hypertension”. Moreover, the “Jak2 inhibition, selectivity” value on Jak2 [4] (listed as AG490) is “selectively inhibits Jak2”; at Jak2 [4] (listed as Tyrphostin AG490), “selective, specific, and potent”.
